According to patent US10435399B2, “HDAC6 inhibitory heterocyclic compound” (TAKEDA PHARMACEUTICAL COMPANY LIMITED, priority 2017, dated 2019):

What follows are molecules tested against T1, HDAC6 enzyme (Homo sapiens, UniProt Q9UBN7) (assay: HDAC6 enzyme inhibitory activity (HDAC-Glo I/II Assay kit)). Details: 10 μM; wells without enzyme = 100% inhibition; read-out: HDAC6 inhibitory rate (%) (10 μM).
T1 construct: transducing full length HDAC6 gene into Sf-9 insect cells; GST; purchased SignalChem; host or cells: Sf-9 insect cells
T1 sequence (Q9UBN7 1-1215): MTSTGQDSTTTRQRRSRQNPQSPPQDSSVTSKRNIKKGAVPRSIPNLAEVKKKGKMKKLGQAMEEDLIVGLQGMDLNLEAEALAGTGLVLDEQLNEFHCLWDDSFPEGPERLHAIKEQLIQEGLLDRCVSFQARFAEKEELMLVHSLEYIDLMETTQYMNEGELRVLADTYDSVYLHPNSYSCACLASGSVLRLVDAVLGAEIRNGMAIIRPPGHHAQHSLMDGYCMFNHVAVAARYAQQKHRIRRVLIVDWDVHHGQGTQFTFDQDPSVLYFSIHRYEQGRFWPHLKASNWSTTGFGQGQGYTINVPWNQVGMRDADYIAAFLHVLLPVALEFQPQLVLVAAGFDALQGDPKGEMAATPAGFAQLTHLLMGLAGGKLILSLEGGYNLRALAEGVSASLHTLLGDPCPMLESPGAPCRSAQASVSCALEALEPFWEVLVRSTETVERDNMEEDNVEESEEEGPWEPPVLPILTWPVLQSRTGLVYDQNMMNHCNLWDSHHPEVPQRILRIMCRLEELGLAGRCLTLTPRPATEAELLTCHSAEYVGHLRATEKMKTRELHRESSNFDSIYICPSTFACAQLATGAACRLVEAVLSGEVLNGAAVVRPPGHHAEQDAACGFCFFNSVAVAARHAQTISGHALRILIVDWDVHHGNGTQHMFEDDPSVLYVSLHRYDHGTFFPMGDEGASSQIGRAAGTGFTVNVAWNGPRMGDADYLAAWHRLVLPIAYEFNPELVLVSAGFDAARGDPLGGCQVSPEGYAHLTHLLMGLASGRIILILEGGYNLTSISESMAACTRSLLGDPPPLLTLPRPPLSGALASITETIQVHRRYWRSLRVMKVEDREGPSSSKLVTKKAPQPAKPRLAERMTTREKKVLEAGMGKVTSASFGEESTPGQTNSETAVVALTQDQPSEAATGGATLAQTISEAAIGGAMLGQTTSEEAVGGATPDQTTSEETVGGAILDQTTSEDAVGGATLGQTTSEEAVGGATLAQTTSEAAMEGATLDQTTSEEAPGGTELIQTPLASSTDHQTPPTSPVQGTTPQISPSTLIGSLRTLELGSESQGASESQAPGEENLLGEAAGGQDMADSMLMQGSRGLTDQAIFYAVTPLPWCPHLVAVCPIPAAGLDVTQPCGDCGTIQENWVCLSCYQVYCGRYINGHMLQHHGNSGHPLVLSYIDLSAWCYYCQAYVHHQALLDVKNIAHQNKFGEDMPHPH
Assay type: biochemical
Summary of the method: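 Sf-9-derived GST-purified full-length HDAC6 + cpd, 60 min RT, 24 mM Tris pH 7.5/0.6 mM glutathione/0.01% Tween-20; add HDAC-Glo substrate-developer, 20 min RT; luminescence. No-enzyme = 100% inhibition.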

Row | inhibition at 10 µM [%] | SMILES
1 | 100 | CCC(F)(F)C(=O)N[C@@H]1CCOC[C@H]1N1Cc2c(F)cc(-c3nnc(C(F)F)o3)cc2C1=O [Example 204]
2 | 101 | O=C1c2cc(-c3nnc(C(F)F)o3)cc(F)c2CN1[C@@H]1COCC[C@H]1NC(=O)C1(C(F)(F)F)CCC1 [Example 205, N-((3S,4R)-3-(6-(5-(difluoromethyl)-1,3,4-oxadiazol-2-yl)-4-fluoro-1-oxo-1,3-dihydro-2H-isoindol-2-yl)tetrahydro-2H-pyran-4-yl)-1-(trifluoromethyl)cyclobutanecarboxamide]
3 | 100 | Cn1ccc(-c2ccccc2N2Cc3ccc(-c4nnc(C(F)F)o4)cc3C2=O)n1 [Example 206, 6-(5-(difluoromethyl)-1,3,4-oxadiazol-2-yl)-2-(2-(1-methyl-1H-pyrazol-3-yl)phenyl)isoindolin-1-one]
4 | 100 | Cn1cc(-c2ccccc2N2Cc3ccc(-c4nnc(C(F)F)o4)cc3C2=O)cn1 [Example 207, 6-(5-(difluoromethyl)-1,3,4-oxadiazol-2-yl)-2-(2-(1-methyl-1H-pyrazol-4-yl)phenyl)isoindolin-1-one]
5 | 100 | O=C1c2cc(-c3nnc(C(F)F)o3)ccc2CN1c1ccccc1-c1cccnc1 [Example 208, 6-(5-(difluoromethyl)-1,3,4-oxadiazol-2-yl)-2-(2-(pyridin-3-yl)phenyl)isoindolin-1-one]
6 | 107 | O=C1c2cc(-c3nnc(C(F)F)o3)ccc2CN1CCOc1ccccc1 [Example 209, 6-(5-(difluoromethyl)-1,3,4-oxadiazol-2-yl)-2-(2-phenoxyethyl)isoindolin-1-one]
7 | 101 | CCC(F)(F)C(=O)N[C@@H]1CCCC[C@H]1N1Cc2c(F)cc(-c3nnc(C(F)F)o3)cc2C1=O [Example 210, N-((1R,2R)-2-(6-(5-(difluoromethyl)-1,3,4-oxadiazol-2-yl)-4-fluoro-1-oxo-1,3-dihydro-2H-isoindol-2-yl)cyclohexyl)-2,2-difluorobutanamide]
8 | 100 | CC1(C(=O)N[C@@H]2CCCC[C@H]2N2Cc3c(F)cc(-c4nnc(C(F)F)o4)cc3C2=O)COC1 [Example 211, N-((1R,2R)-2-(6-(5-(difluoromethyl)-1,3,4-oxadiazol-2-yl)-4-fluoro-1-oxo-1,3-dihydro-2H-isoindol-2-yl)cyclohexyl)-3-methyloxetane-3-carboxamide]
9 | 101 | O=C1c2cc(-c3nnc(C(F)F)o3)cc(F)c2CN1[C@@H]1CCOC[C@H]1NC(=O)C1(C(F)(F)F)CCC1 [Example 212, N-((3S,4R)-4-(6-(5-(difluoromethyl)-1,3,4-oxadiazol-2-yl)-4-fluoro-1-oxo-1,3-dihydro-2H-isoindol-2-yl)tetrahydro-2H-pyran-3-yl)-1-(trifluoromethyl)cyclobutanecarboxamide]
10 | 100 | CC(C)(OC(=O)N[C@@H]1COCC[C@H]1N1Cc2c(F)cc(-c3nnc(C(F)F)o3)cc2C1=O)C(F)(F)F [Example 213, 1,1,1-trifluoro-2-methylpropan-2-yl ((3S,4R)-4-(6-(5-(difluoromethyl)-1,3,4-oxadiazol-2-yl)-4-fluoro-1-oxo-1,3-dihydro-2H-isoindol-2-yl)tetrahydro-2H-pyran-3-yl)carbamate]
11 | 100 | CC(C)(F)C(=O)N[C@@H]1CCCC[C@H]1N1Cc2ncc(-c3nnc(C(F)F)o3)cc2C1=O [Example 214, N-((1R,2R)-2-(3-(5-(difluoromethyl)-1,3,4-oxadiazol-2-yl)-5-oxo-5,7-dihydro-6H-pyrrolo[3,4-b]pyridin-6-yl)cyclohexyl)-2-fluoro-2-methylpropanamide]
12 | 101 | O=C1c2cc(-c3nnc(C(F)F)o3)cnc2CN1[C@@H]1CCCC[C@H]1NC(=O)C(F)(F)F [Example 215, N-((1R,2R)-2-(3-(5-(difluoromethyl)-1,3,4-oxadiazol-2-yl)-5-oxo-5,7-dihydro-6H-pyrrolo[3,4-b]pyridin-6-yl)cyclohexyl)-2,2,2-trifluoroacetamide]
13 | 100 | O=C1c2cc(-c3nnc(C(F)F)o3)cnc2CN1[C@@H]1CCCC[C@H]1NC(=O)C1(F)CC1 [Example 216, N-((1R,2R)-2-(3-(5-(difluoromethyl)-1,3,4-oxadiazol-2-yl)-5-oxo-5,7-dihydro-6H-pyrrolo[3,4-b]pyridin-6-yl)cyclohexyl)-1-fluorocyclopropanecarboxamide]
14 | 98 | CC(C)(C(=O)N[C@@H]1CCCC[C@H]1N1Cc2ncc(-c3nnc(C(F)F)o3)cc2C1=O)C(F)(F)F [Example 217, N-((1R,2R)-2-(3-(5-(difluoromethyl)-1,3,4-oxadiazol-2-yl)-5-oxo-5,7-dihydro-6H-pyrrolo[3,4-b]pyridin-6-yl)cyclohexyl)-3,3,3-trifluoro-2,2-dimethylpropanamide]
15 | 100 | O=C1c2cc(-c3nnc(C(F)F)o3)cnc2CN1[C@@H]1CCCC[C@H]1NC(=O)C1(F)CCC1 [Example 218, N-((1R,2R)-2-(3-(5-(difluoromethyl)-1,3,4-oxadiazol-2-yl)-5-oxo-5,7-dihydro-6H-pyrrolo[3,4-b]pyridin-6-yl)cyclohexyl)-1-fluorocyclobutanecarboxamide]
16 | 100 | O=C1c2cc(-c3nnc(C(F)F)o3)cnc2CN1[C@@H]1CCCC[C@H]1NC(=O)C1(C(F)(F)F)CCC1 [Example 219]
17 | 94 | O=C1c2cc(-c3nnc(C(F)F)o3)ccc2CN1[C@@H]1CCCC[C@H]1O [Example 220, 6-(5-(difluoromethyl)-1,3,4-oxadiazol-yl)-2-((1R,2R)-2-hydroxycyclohexyl)-isoindolin-1-one]
18 | 101 | O=C1c2cc(-c3nnc(C(F)F)o3)cnc2CN1[C@@H]1CCCC[C@H]1NC(=O)C1(c2ccc(F)cc2)CC1 [Example 221, N-((1R,2R)-2-(3-(5-(difluoromethyl)-1,3,4-oxadiazol-2-yl)-5-oxo-5,7-dihydro-6H-pyrrolo[3,4-b]pyridin-6-yl)cyclohexyl)-1-(4-fluorophenyl)-cyclopropanecarboxamide]
19 | 99 | O=C(N[C@@H]1CCCC[C@H]1N1Cc2ncc(-c3nnc(C(F)F)o3)cc2C1=O)c1ccccc1F [Example 222, N-((1R,2R)-2-(3-(5-(difluoromethyl)-1,3,4-oxadiazol-2-yl)-5-oxo-5,7-dihydro-6H-pyrrolo[3,4-b]pyridin-6-yl)cyclohexyl)-2-fluorobenzamide]
20 | 99 | N#Cc1ccccc1C(=O)N[C@@H]1CCCC[C@H]1N1Cc2ncc(-c3nnc(C(F)F)o3)cc2C1=O [Example 223, 2-cyano-N-((1R,2R)-2-(3-(5-(difluoro-methyl)-1,3,4-oxadiazol-2-yl)-5-oxo-5,7-dihydro-6H-pyrrolo[3,4-b]-pyridin-6-yl)cyclohexyl)benzamide]
21 | 100 | O=C(N[C@@H]1CCCC[C@H]1N1Cc2ncc(-c3nnc(C(F)F)o3)cc2C1=O)c1cccc(F)c1 [Example 224, N-((1R,2R)-2-(3-(5-(difluoromethyl)-1,3,4-oxadiazol-2-yl)-5-oxo-5,7-dihydro-6H-pyrrolo[3,4-b]pyridin-6-yl)cyclohexyl)-3-fluorobenzamide]
22 | 98 | N#Cc1cccc(C(=O)N[C@@H]2CCCC[C@H]2N2Cc3ncc(-c4nnc(C(F)F)o4)cc3C2=O)c1 [Example 225, 3-cyano-N-((1R,2R)-2-(3-(5-(difluoro-methyl)-1,3,4-oxadiazol-2-yl)-5-oxo-5,7-dihydro-6H-pyrrolo[3,4-b]pyridin-6-yl)cyclohexyl)benzamide]
23 | 99 | O=C(N[C@@H]1CCCC[C@H]1N1Cc2ncc(-c3nnc(C(F)F)o3)cc2C1=O)c1cccc(C(F)(F)F)c1 [Example 226, N-((1R,2R)-2-(3-(5-(difluoromethyl)-1,3,4-oxadiazol-2-yl)-5-oxo-5,7-dihydro-6H-pyrrolo[3,4-b]pyridin-6-yl)cyclohexyl)-3-(trifluoromethyl)-benzamide]
24 | 100 | O=C1c2cc(-c3nnc(C(F)F)o3)cc(F)c2CN1C[C@H]1COCCN1CC(F)(F)C(F)(F)F [Example 227, 6-(5-(difluoromethyl)-1.3,4-oxadiazol-2-yl)-4-fluoro-2-(((3S)-4-(2,2,3,3,3-pentafluoropropyl)morpholin-3-yl)-methyl)isoindolin-1-one]
